The source of these data is ChEMBL document CHEMBL1201862, “PubChem BioAssay data set” (2004).

Test systems include SF-268; DU-145; MDA-MB-231; SNB-19; HOP-92; SW-620; UACC-62; BT-549; CCRF-CEM; SN12C; RPMI-8226; 786-0; EKVX; COLO 205; HT-29; IGROV-1; MOLT-4; OVCAR-3; HCT-15; HL-60.
Common to all, as to assay: NCI-60 cell line screen, 48 h

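Results reflect a 48-hour exposure of cells in 96-well plates to compound at five concentrations. GI50: concentration for 50% inhibition of growth.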 Calls of active or inactive are those of the source. Rule as the data show it: active = GI50 up to about 1.1 µM and inactive = higher.

With `CC(C)(C)OC(=O)C(C1NC(C(=O)O)C(C)(C)S1)N1C(=O)c2ccccc2C1=O` (stereo not given), the GI50 with SF-268, with DU-145, in the assay on MDA-MB-231, in the assay on SNB-19, with HOP-92 and in the assay with SW-620 was > 100 µM (inactive) each time. Also, the GI50 in the assay on UACC-62, in the assay on BT-549, in the assay on CCRF-CEM, in the assay with SN12C, in the assay with RPMI-8226 and in the assay with 786-0 was > 100 µM (inactive) each time. The GI50 with EKVX, with COLO 205, with HT-29, with IGROV-1, in the assay on MOLT-4 and in the assay on OVCAR-3 was > 100 µM (inactive) in each case. Further, the values for the GI50 in the assay with HCT-15 and in the assay on HL-60 were above 100 µM and > 100 µM (inactive), respectively.

With `CCCCCCCC1(N=[N+]=[N-])C(=O)c2ccccc2N(C)C1=O` (stereo not given), the GI50 in the assay on SF-268 was 93.8 µM (inactive); in the assay with DU-145, > 100 µM (inactive); with MDA-MB-231, > 100 µM (inactive); in the assay on SNB-19 it was > 100 µM (inactive); in the assay with HOP-92, 22.5 µM (inactive); with SW-620, > 100 µM (inactive). In addition, the GI50 in the assay on UACC-62 is 72.9 µM (inactive); with BT-549 it was 88.5 µM (inactive); with CCRF-CEM, 7.55 µM (inactive); in the assay on SN12C, > 100 µM (inactive); in the assay on RPMI-8226, 56.1 µM (inactive); with 786-0 it was > 100 µM (inactive). For the same molecule, the GI50 is > 100 µM (inactive) with EKVX; > 100 µM (inactive) with COLO 205; 40.1 µM (inactive) in the assay on HT-29; > 100 µM (inactive) in the assay with IGROV-1; > 100 µM (inactive) with MOLT-4; 49 µM (inactive) in the assay with OVCAR-3. For the same molecule, the GI50 in the assay on HCT-15 is above 100 µM; in the assay on HL-60 it was 54.1 µM (inactive).

With `CSc1ccc(/C=C2\N=C(c3ccccc3)N(c3nc4c(Cl)cc(Cl)cc4s3)C2=O)cc1`, the GI50 is 28.2 µM (inactive) in the assay with SF-268; 46 µM (inactive) in the assay on DU-145; 18.9 µM (inactive) with MDA-MB-231; 28.9 µM (inactive) with SNB-19; 32.8 µM (inactive) in the assay with HOP-92; 29.4 µM (inactive) in the assay on SW-620. For the same molecule, the GI50 with UACC-62 is 24.4 µM (inactive); in the assay with BT-549, 21.5 µM (inactive); with CCRF-CEM, 7.74 µM (inactive); with SN12C, 24.8 µM (inactive); with RPMI-8226, 22.5 µM (inactive); with 786-0, 25.9 µM (inactive). For the same molecule, the GI50 in the assay with EKVX was 13.6 µM (inactive); with COLO 205, 33.4 µM (inactive); in the assay with HT-29, 19.8 µM (inactive); in the assay with IGROV-1, 35.3 µM (inactive); in the assay on MOLT-4, 18.6 µM (inactive); in the assay with OVCAR-3, 18.9 µM (inactive). The GI50 is 28.5 µM in the assay on HCT-15 and 21.6 µM (inactive) in the assay on HL-60.

For `OC[C@@H](O)[C@H](O)[C@@H](O)/C=N/Nc1ccc(Cl)nn1`, the GI50 in the assay with SF-268, in the assay with DU-145, in the assay on MDA-MB-231, in the assay on SNB-19, in the assay with HOP-92 and in the assay on SW-620 was > 100 µM (inactive) throughout. For the same molecule, the GI50 in the assay on UACC-62, with BT-549, in the assay on CCRF-CEM, in the assay on SN12C, with RPMI-8226 and in the assay on 786-0 was > 100 µM (inactive) each time. Further, the GI50 in the assay on EKVX, in the assay with COLO 205, with HT-29, in the assay on IGROV-1, in the assay with MOLT-4 and in the assay with OVCAR-3 was > 100 µM (inactive) each time. For the same molecule, the figures for the GI50 with HCT-15 and in the assay on HL-60 were above 100 µM and > 100 µM (inactive), respectively.

Take `CCOC(=O)c1ccc(NCC#CCN2CCCCC2)cc1`: the GI50 with SF-268, in the assay with DU-145, in the assay with MDA-MB-231, in the assay with SNB-19, in the assay on HOP-92 and in the assay with SW-620 was > 100 µM (inactive) in each case. The GI50 in the assay with UACC-62 is 50.1 µM (inactive); in the assay with BT-549, > 100 µM (inactive); in the assay on CCRF-CEM, 19.7 µM (inactive); with SN12C, > 100 µM (inactive); in the assay with RPMI-8226 it was > 100 µM (inactive); in the assay with 786-0 it was > 100 µM (inactive). The GI50 in the assay on EKVX was > 100 µM (inactive); in the assay on COLO 205, 41.9 µM (inactive); in the assay on HT-29 it was > 100 µM (inactive); in the assay on IGROV-1, > 100 µM (inactive); in the assay on MOLT-4, > 100 µM (inactive); in the assay with OVCAR-3, > 100 µM (inactive). In addition, the GI50 is 89.9 µM with HCT-15 and 60.1 µM (inactive) in the assay with HL-60.

Regarding `CCOC(=O)c1nc2cc(Cl)ccc2[nH]c1=O`, the GI50 with SF-268, with DU-145, with MDA-MB-231, in the assay on SNB-19, in the assay with HOP-92 and with SW-620 was > 100 µM (inactive) in each case. In addition, the GI50 in the assay on UACC-62, in the assay on BT-549, in the assay on CCRF-CEM, in the assay on SN12C, in the assay on RPMI-8226 and in the assay on 786-0 was > 100 µM (inactive) each time. Besides, the GI50 in the assay with EKVX, in the assay on COLO 205, with HT-29, in the assay with IGROV-1, in the assay on MOLT-4 and in the assay on OVCAR-3 was > 100 µM (inactive) in each case. For the same molecule, the GI50 in the assay on HCT-15 is above 100 µM; in the assay with HL-60, > 100 µM (inactive).

Take `Cc1cc2c(c(/C=N/c3ccccc3O)c1)OC1(C=C2)Oc2ccccc2C(=O)N1C` (stereo not given): the GI50 was 14.4 µM (inactive) with SF-268; 14.9 µM (inactive) in the assay on DU-145; 16.3 µM (inactive) with MDA-MB-231; 24.7 µM (inactive) in the assay on SNB-19; 11.8 µM (inactive) with HOP-92; 22.3 µM (inactive) in the assay with SW-620. Also, the GI50 is 17.8 µM (inactive) in the assay with UACC-62; 18.7 µM (inactive) in the assay with BT-549; 17.1 µM (inactive) in the assay on CCRF-CEM; 20.9 µM (inactive) in the assay on SN12C; 21.2 µM (inactive) with RPMI-8226; 14.4 µM (inactive) in the assay with 786-0. For the same molecule, the GI50 is 14 µM (inactive) in the assay on EKVX; 22.9 µM (inactive) with COLO 205; 16.6 µM (inactive) in the assay on HT-29; 21.5 µM (inactive) in the assay on IGROV-1; 13.5 µM (inactive) with MOLT-4; 12.8 µM (inactive) with OVCAR-3. Further, the GI50 in the assay on HCT-15 was 15.9 µM; in the assay on HL-60 it was 27 µM (inactive).

On to `CC(C(=O)n1ccnc1)N1c2ccccc2Sc2ccccc21` (stereo not given), for which the GI50 was 98.2 µM (inactive) in the assay on SF-268; > 100 µM (inactive) in the assay on DU-145; 78.3 µM (inactive) with MDA-MB-231; > 100 µM (inactive) in the assay on SNB-19; 25.1 µM (inactive) in the assay on HOP-92; > 100 µM (inactive) in the assay with SW-620. Also, the GI50 in the assay on UACC-62 was > 100 µM (inactive); with BT-549, > 100 µM (inactive); with CCRF-CEM, 84.7 µM (inactive); in the assay with SN12C it was 96.6 µM (inactive); in the assay on RPMI-8226 it was 65.3 µM (inactive); in the assay on 786-0 it was 59.2 µM (inactive). Moreover, the GI50 was 88.3 µM (inactive) in the assay on EKVX; 79.3 µM (inactive) in the assay with COLO 205; 90.4 µM (inactive) in the assay with HT-29; > 100 µM (inactive) in the assay on IGROV-1; 43 µM (inactive) with MOLT-4; 38.5 µM (inactive) with OVCAR-3. In addition, the figures for the GI50 in the assay on HCT-15 and with HL-60 were 97.5 µM and 91.8 µM (inactive), respectively.

With `COC(=O)c1c2c(c3[nH]c4ccccc4c3c1C(=O)OC)C(=O)C1=C(C2=O)C2(Cl)C(Cl)C(Cl)C1(Cl)C2(Cl)Cl` (stereo not given), the GI50 in the assay on SF-268 was 0.436 µM (active); in the assay with DU-145, 2.07 µM (inactive); in the assay with MDA-MB-231, 1.85 µM (inactive); with SNB-19 it was 3.4 µM (inactive); with HOP-92 it was 1.77 µM (inactive); with SW-620, 0.353 µM (active). Moreover, the GI50 in the assay with UACC-62 was 1.99 µM (inactive); in the assay with BT-549, 1.96 µM (inactive); in the assay on CCRF-CEM, 1.89 µM (inactive); with SN12C it was 1.94 µM (inactive); in the assay on RPMI-8226, 1.19 µM (inactive); with 786-0, 2.68 µM (inactive). The GI50 with EKVX is 3.92 µM (inactive); in the assay with COLO 205, 1.81 µM (inactive); with HT-29, 2.55 µM (inactive); in the assay on IGROV-1, 2.69 µM (inactive); in the assay on MOLT-4 it was 1.17 µM (inactive); in the assay on OVCAR-3, 2.33 µM (inactive). For the same molecule, the GI50 in the assay with HCT-15 is 1.48 µM; in the assay on HL-60, 2.29 µM (inactive).

`Clc1cc(Cl)cc(/C=N/C23CC4CC(CC(C4)C2)C3)c1`: the GI50 in the assay on SF-268, with DU-145, in the assay with MDA-MB-231, with SNB-19, in the assay on HOP-92 and with SW-620 was > 10 µM (inactive) throughout. The GI50 with UACC-62, in the assay on BT-549, in the assay on CCRF-CEM, with SN12C, in the assay on RPMI-8226 and with 786-0 was > 10 µM (inactive) each time. For the same molecule, the GI50 in the assay with EKVX, in the assay with COLO 205, in the assay with HT-29, with IGROV-1, in the assay with MOLT-4 and in the assay with OVCAR-3 was > 10 µM (inactive) in each case. For the same molecule, the GI50 is above 10 µM in the assay on HCT-15 and > 10 µM (inactive) with HL-60.
